Experimental data: patent US10137106B2, “Compositions and methods to treat niemann-pick disease” (Blanchette Rockefeller Neurosciences Institute, Inc., priority 2014, dated 2018)

Experiments:
Assay type in all cases: cell-based
PKC α [1] = molecular target: T1, PKC α (Homo sapiens, UniProt P17252); assay: PKC α activation (membrane translocation, immunoblot) in primary human neurons; set-up: host or cells: primary human cortical neurons
Procedure: (§1) The homogenate was centrifuged at 100,000×g for 15 min at 4° C. to obtain the cytosolic fraction (supernatant) and membrane (pellet). […] The separated protein was then transferred to a nitrocellulose membrane.

PKC α [2] = molecular target: T1, PKC α; assay: PKC α activation in SH-SY5Y cells (cytosol/membrane fractions, isoform-specific antibodies); details: 0.27 nM, 5-60 min (FIG. 3)
Procedure: Three independent experiments were performed for each sample.
as §1

PKC ε [3] = molecular target: T2, PKC ε (Homo sapiens, UniProt Q02156); assay: PKC ε activation (membrane translocation, immunoblot) in primary human neurons; set-up: host or cells: primary human cortical neurons
T2 sequence (Q02156 1-737): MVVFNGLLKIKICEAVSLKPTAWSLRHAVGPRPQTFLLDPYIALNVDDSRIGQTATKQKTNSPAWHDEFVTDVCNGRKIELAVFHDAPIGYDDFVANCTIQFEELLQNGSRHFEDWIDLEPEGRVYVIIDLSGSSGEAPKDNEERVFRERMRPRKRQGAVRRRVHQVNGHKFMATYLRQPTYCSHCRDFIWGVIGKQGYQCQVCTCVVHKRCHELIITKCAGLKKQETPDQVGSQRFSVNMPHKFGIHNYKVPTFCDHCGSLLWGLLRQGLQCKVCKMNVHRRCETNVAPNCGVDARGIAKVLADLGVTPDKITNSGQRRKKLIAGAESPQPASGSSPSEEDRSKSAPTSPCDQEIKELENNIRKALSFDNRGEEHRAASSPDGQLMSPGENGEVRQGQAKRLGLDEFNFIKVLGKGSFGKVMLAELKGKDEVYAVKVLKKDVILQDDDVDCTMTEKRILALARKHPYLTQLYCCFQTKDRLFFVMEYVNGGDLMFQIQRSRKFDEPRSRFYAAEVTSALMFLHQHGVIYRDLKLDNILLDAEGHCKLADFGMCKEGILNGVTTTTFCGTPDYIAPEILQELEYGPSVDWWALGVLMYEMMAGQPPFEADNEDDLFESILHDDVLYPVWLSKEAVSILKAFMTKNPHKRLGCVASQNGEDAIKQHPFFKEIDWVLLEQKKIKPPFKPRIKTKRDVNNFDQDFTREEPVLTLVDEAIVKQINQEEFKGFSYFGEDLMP
Procedure: PKC isozyme activation by bryostatin-1 at various concentrations in primary human neurons was evaluated. One month old primary human neurons were treated with 0 nM, 0.060 nM, 0.125 nM, 0.25 nM, 0.5 nM and 1.0 nM bryostatin 1 for 24 hr. Neurons were separated into soluble and membrane fractions and immunoblotted against PKC α and PKC ε. PKC activation was measured as the percentage of total protein in the membrane and reported as percentage of control. PKC staining levels were measured densitometrically. Data are represented as mean±SE of three independent experiments (Students t-test, *P<0.05 and **P<0.005).
PKC isozyme activation by bryostatin-1 at 0.25 nM in primary human neurons was evaluated. One month old primary human neurons were treated with ethanol (C), bryostatin 1 (0.25 nM) for 1 hr, 4 hr and 24 hr. Neurons were separated into soluble (S) and membrane (P) fractions and immunoblotted against PKC α, PKC ε and PKC δ. PKC activation was measured as the percentage of total protein in the membrane and reported as percentage of control. PKC staining levels were measured densitometrically.
Culture of primary human cortical neurons: Human primary neurons (ScienCell Research Laboratories, Carlsbad, Calif., USA) were plated on poly-L-lysine coated plates and were maintained in neuronal medium (ScienCell Research Laboratories, Carlsbad, Calif., USA) supplemented with the neuronal growth supplement (NGS, ScienCell Research Laboratories, Carlsbad, Calif., USA). For maintenance of neurons, half of the media was changed every 3 days. Fresh activators were added with every media change.
(§2) Cell lysis and Western blot analysis: Cells were harvested in homogenizing buffer (HB) containing 10 mM Tris-Cl (pH 7.4), 1 mM PMSF (phenylmethylsulfonylfluoride), 1 mM EGTA, 1 mM EDTA, 50 mM NaF and 20 μM leupeptin, and were lysed by sonication. The homogenate was centrifuged at 100,000×g for 15 min at 4° C. to obtain the cytosolic fraction (supernatant) and membrane (pellet). The pellet was resuspended in the HB by sonication. Protein concentration was measured using the Coomassie Plus (Bradford) Protein Assay kit (Pierce, Rockford, Ill., USA). Following quantification, 20 μg of protein from each sample was subjected to SDS-PAGE analysis in a 4-20% gradient Tris-Glycine polyacrylamide gel (Invitrogen, Carlsbad, Calif., USA). The separated protein was then transferred to a nitrocellulose membrane. The membrane was blocked with BSA and incubated with primary antibody overnight at 4° C. […] The blot was imaged in a ImageQuant RT-ECL (GE Life Sciences, Piscataway, N.J.) and densitometric quantification was performed using IMAL software. For quantifying expression of a protein, the densitometric value for the protein of interest was normalized against beta-actin (loading control).

PKC ε [4] = molecular target: T2, PKC ε; assay: PKC ε activation in SH-SY5Y cells (cytosol/membrane fractions, isoform-specific antibodies); details: 0.27 nM, 5-60 min (FIG. 3)
Procedure: PKC isozyme activation by bryostatin-1 at 0.27 nM in SH-SY5Y cells was evaluated. SH-SY5Y cells are human-derived cell line and are often used as in vitro models of neuronal function and differentiation. Cells were treated with bryostatin-1 (0.27 nM) for 0, 5, 15, 30 and 60 min. Samples were fractionated into cytosol and membrane fractions and analyzed with PKC isoform-specific antibodies. Three independent experiments were performed for each sample.
Cell culture and treatments: Human SH-SY5Y neuroblastoma cells (ATCC) were cultured in 45% F12K, 45% DMEM and 10% FBS.
as §2, with “The pellet was resuspended in the HB by sonication.” left out, “USA).” for “USA). The separated protein was then transferred to a nitrocellulose membrane. The membrane was blocked with BSA and incubated with primary antibody overnight at 4° C.”, “For quantifying expression of a protein, the densitometric value for the protein of interest was normalized against beta-actin (loading control).” left out

CCC/C=C/C=C/C(=O)O[C@H]1/C(=C/C(=O)OC)C[C@H]2C[C@H]([C@@H](C)O)OC(=O)C[C@H](O)C[C@@H]3C[C@H](OC(C)=O)C(C)(C)[C@](O)(C[C@@H]4C/C(=C/C(=O)OC)C[C@H](/C=C/C(C)(C)[C@]1(O)O2)O4)O3 [bryostatin-1]
PKC α activation (percentage of total protein in the membrane, percentage of control) (PKC α [1]; 0.060-1.0 nM, 24 hr (FIG. 1)): activated both PKC ε and PKC α
PKC α activation at about 1 nM (PKC α [1]; about 1 nM, 24 hr): potent activation of both PKC ε and PKC α
PKC α activation (PKC α [2]): activated both PKC ε and PKC α
PKC-ε activation, time course (PKC ε [3]; 0.25 nM, 1 hr, 4 hr and 24 hr (FIG. 2B)): induced PKC-ε activation
PKC ε activation (percentage of total protein in the membrane, percentage of control) (PKC ε [3]; 0.060-1.0 nM, 24 hr (FIG. 1)): activated both PKC ε and PKC α
PKC ε activation at about 1 nM (PKC ε [3]; about 1 nM, 24 hr): potent activation of both PKC ε and PKC α
PKC ε activation at low concentrations (PKC ε [3]; low concentrations, 24 hr): potent PKC ε activation
PKC ε activation (PKC ε [4]): activated both PKC ε and PKC α
